The data set relates to patients with Fuchs Corneal Dystrophy (corneal edema). The data set is classed as in vivo, human. Particulars: for BCVA (best corrected visual acuity) improvement: netarsudil QD. From the text: FIG. 1 is a graphic representation of the study described in Example 6.
A Randomized, Open-Label, Parallel-Group Study of Two Dosing Regimens of Netarsudil in Patients with Fuchs Corneal Dystrophy
Fuchs Corneal Dystrophy (FCD) is a slowly progressive corneal disease, and is the most common indication for corneal transplants worldwide. A typical patient presents with blurred vision, glare, and a hazy cornea from corneal edema. The only definitive treatment option to restore vision is surgery. There is a large unmet need for pharmacologic alternatives to surgery
Purpose of this study: evaluate the therapeutic potential of two dosing regimens of netarsudil, a Rho kinase inhibitor, to reduce corneal edema and improve visual acuity in patients with FCD. […] Complete resolution of edema in 12.5% of patients at Week 4 (BID+QD) (FIG. 2). • d. 25% of patients gained letters from baseline in BCVA at Week 4 (BID+QD) (FIG. 4). • e. […] Improvements in validated patient reported outcome questionnaire shown at all timepoints with netarsudil QD dosing (FIG. 5). • g. […] Most common ocular TEAE was hyperemia accounting for 3/9 and 6/17 total ocular TEAE in the QD and BID groups, respectively. • i. Reticular edema developed in 1 patient in BID group, which resolved with treatment discontinuation.

Like-named read-outs stand apart in the source and are kept apart here.

Regarding `Cc1ccc(C(=O)OCc2ccc([C@@H](CN)C(=O)Nc3ccc4cnccc4c3)cc2)c(C)c1` [netarsudil, Netarsudil], the reticular edema developed (human, in vivo) amounted to 1 patient. In addition, the tolerability entry (human, in vivo) is reported as “well tolerated”. For the same compound, the “BCVA (best corrected visual acuity) improvement” value is on record as 5.0 letters (week 2) and 3.2 letters (week 4). The “patients with complete resolution of edema” value (week 4, BID+QD) was determined as 12.5%. Moreover, the “patients who gained letters from baseline in BCVA” value (week 4, overall (BID+QD)) amounted to 25%.

Values taken from US20230293511A1, “Ophthalmic Compositions and Uses Thereof” (priority 2022, published 2023).
